# Results reported in the NIST ThermoML archive (doi:10.1016/j.fluid.2008.08.001).
# ± gives the expanded uncertainty stated by the source.
# Tests used:
# [1] = refractive index (Na D-line) (dimensionless); details: 298.1 K; 101.33 kPa; Liquid; Standard Abbe refractometry
# [2] = for vapor or sublimation pressure: Liquid
refractive index [1],vapor or sublimation pressure ([2]; 468.96 K) [kPa],vapor or sublimation pressure ([2]; 473.96 K) [kPa],vapor or sublimation pressure ([2]; 478.65 K) [kPa],vapor or sublimation pressure ([2]; 485.91 K) [kPa],vapor or sublimation pressure ([2]; 488.5 K) [kPa],vapor or sublimation pressure ([2]; 490.22 K) [kPa],vapor or sublimation pressure ([2]; 496.8 K) [kPa],vapor or sublimation pressure ([2]; 500.18 K) [kPa],vapor or sublimation pressure ([2]; 505.08 K) [kPa],vapor or sublimation pressure ([2]; 510.7 K) [kPa],vapor or sublimation pressure ([2]; 519.03 K) [kPa],vapor or sublimation pressure ([2]; 525.3 K) [kPa],vapor or sublimation pressure ([2]; 532.77 K) [kPa],"Normal melting temperature ([2]; Crystal, visual observation) [°C]",SMILES
1.442 ± 0.0007,0.666 ± 0.044,0.818 ± 0.05,1.036 ± 0.059,1.457 ± 0.078,1.515 ± 0.081,1.762 ± 0.093,2.286 ± 0.12,2.647 ± 0.14,3.149 ± 0.16,4.078 ± 0.21,5.29 ± 0.27,7.044 ± 0.35,9.161 ± 0.46,,CCCCOC(=O)CCCCCCCCC(=O)OCCCC [dibutyl decanedioate]
,,,,,,,,,,,,,,52.5 ± 0.5,O=C1C=CC(=O)O1 [maleic anhydride]
